In patent publication US20140106387A1, “METHOD FOR CONTROLLING NAD(P)/NAD(P)H RATIO BY OXIDOREDUCTASE” (MD BIOALPHA CO., LTD., priority 2006, published 2014):

What was measured:
MN9X cells = experiment: intracellular ATP concentration in non-dopaminergic neuronal cells; type: cell-based; conditions: 5 μM
Method: Dopaminergic (MN9D) and non-dopaminergic (MN9X) neuronal cells were treated with 5 μM pyran-1,2-naphthoquinone and the ATP concentration was periodically measured.

AMPK = AMPK phosphorylation in HEK293 cells (Western blot); type: cell-based, human; conditions: 10 μM, 30 min
Method: Cells were lysed in SDS sample buffer (62.5 mM Tris HCl (pH 6.8), 6% (w/v) SDS, 30% glycerol, 125 mM DTT, and 0.03% (w/v) bromophenol blue). The total cell lysates were boiled at a temperature of 100° C. for 5 min and electrophoresed on a sodium dodecyl sulfate-polyacrylamide gel, and proteins were transferred on a nitrocellulose membrane. The membrane was reacted in TBS (5% (w/v) milk and 0.1% Tween 20) for 1 hour, and then reacted with primary antibodies for 2 hours. Next, the membrane was developed using HRP-conjugated secondary antibodies (Phototope-HRP Western Blot Detection Kit, New England Biolabs, Beverly, Mass.).
In order to investigate the importance of an NQO1 protein in phosphorylation of AMP kinase, HepG2, MCF-7 and HEK293 cells were seeded onto 60 mm plates at a density of 1×10^6 cells/plate. After growing the cells for 24 hours, the culture medium was replaced with a serum-free medium, and cells were treated with pyrano-1,2-naphthoquinone (10 μM) for 30 min, respectively, in combination with a control group (DMSO). Cells were lysed in RIPA buffer and amounts of all proteins were quantified using a spectrophotometer, and 50 μg of the protein was subjected to electrophoresis. AMP kinase phosphorylation was examined using Anti-AMPK and Anti-pT172-AMPK, whereas the NQO1 protein was assayed using Anti-NQO1. From the fact that AMP kinase phosphorylation by pyran-1,2-naphthoquinone (10 μM) was not observed in HEK293 cells, it can be seen that the NQO1 protein is crucial for phosphorylation of AMP kinase.
In order to examine that an activity of NQO1 is important for the phosphorylation of AMP kinase, HEK293 cells were seeded onto a 6-well plate at a density of 1×10^5 cells/well, cultured for 24 hours, and transfected with pSG5-HA-NQO1 (500 ng) and pSG5-HA-NOQ1-C609T (500 ng) plasmids. After 24 hours, the culture medium was replaced with a serum-free medium, and the cells were treated with pyrano-1,2-naphthoquinone (10 μM) and AICAR (2 mM) for 30 min, in combination with a control (DMSO). AMP kinase phosphorylation were assayed using Anti-AMPK and Anti-pT172-AMPK, whereas transfected NQO1 was assayed using Anti-HA.
In addition, AMPK phosphorylation/activation was not promoted in HEK293 cells, except for HEK293 cells transfected with wild type NQO1.

HepG2 cells = experiment: mitochondrial membrane potential (TMRE fluorescence) in HepG2 cells; type: cell-based, human; conditions: NQO1-proficient HepG2 cells
Method: For determination of the inner mitochondrial membrane potential (ΔΨm), 20 nM of TMRE (tetramethylrhodamine ethyl ester) as a fluorescent indicator was continuously applied to be loaded on cells. In order to monitor mitochondrial Ca^2+, cells on glass coverslips were loaded with 10 μM Rhod-2 AM via cold loading/warm incubation. In order to monitor cytosolic Ca^2+, cells were co-loaded with 10 μM Fluo-4 AM at 37′C for 30 min. The cells were washed twice with a KB solution, and mounted in a perfusion chamber. Fluorescent imaging was taken using a confocal laser scanning microscope (LSM-510 META, Carl Zeiss) at a magnification of ×200 and ×400, in conjunction with appropriate laser lines and a filter set. Image analysis was carried out using LSM-510 META software (Zeiss). Images for TMRE (red fluorescence), Rhod-2 (red fluorescence) and Fluo-4 (green fluorescence) were obtained using an inverted Zeiss 510META laser-scanning confocal microscope equipped with ×63 numerical aperture, 1.4 oil-immersion planapochromat lens. Green fluorescence and red fluorescence were illuminated with light of 488 nm and 543 nm. Incident light was passed through a 545 nm dichroic mirror and observed via a 500 to 530 nm band-pass (green) filter and a 560 nm long-pass (red) barrier filter.
However, such effects were not observed in HEK293 cells. […]

HEK293 cells = experiment: mitochondrial oxygen consumption in HEK293 cells; type: cell-based, human
Source text: FIG. 22 is a graph showing monitoring results of mitochondrial oxygen consumption using a Clark-type oxygen electrode;

AMPK, ACC = experiment: AMPK kinase / ACC activity in HepG2 cells; type: cell-based, human
[1] = liver and muscle histology (H&E, EM) in ob/ob mice; type: in vivo, mouse; conditions: 56 days
Method: The removed tissues were cut into a proper size, fixed in 10% formalin, washed with water, and embedded in paraffin to prepare blocks, according to a conventional method. The thus-prepared blocks were sectioned into a 4 μm thickness and subjected to hematoxylin and eosin (H&E) staining for observation of general changes.
For observation of cellular microstructures, the removed tissues were sliced into a size of 1 mm^3, pre-fixed in 2.5% glutaraldehyde (0.1M PBS, pH 7.4, 4° C.) for 2 to 4 hours, washed, and post-fixed in a 1% osmium tetroxide solution for 2 hours. Then, according to a conventional method, the tissues were dehydrated with serial concentrations of ethanol and the solvent was replaced with propylene oxide. The tissues were embedded in an epoxy resin mixture, and the embedded tissues were subjected to thermal polymerization to prepare blocks. The thus-prepared blocks were sectioned into a thickness of 0.5 to 1 μm using a ultramicrotome and stained with toludine blue. Observation sites were selected under a light microscope and the tissues were ultrasectioned to a thickness of 60 to 70 nm. The ultrasectioned specimens were subjected to dual staining of uranyl acetate and lead citrate and were observed under a transmission electron microscope (H-600, Hitachi, Japan) at an accelerating voltage of 75 kV.
In order to examine fat accumulation in the liver tissue, animals were laparotomized 56 days after administration of pyran-1,2-naphthoquinone, and H&E staining and EM examination were performed on the liver tissue.

[2] = swimming test of physical endurance; type: in vivo, mouse; conditions: C57BL/6 DIO mice, single administration, 3 hours later
Method: This Example was intended to measure a difference in physical endurance of mice through a swimming test. For this purpose, water was placed in a cylindrical trough having a diameter of 9.5 cm and a height of 25 cm, and pyrano-1,2-naphthoquinone was administered to C57BL/6 DIO mice. 3 hours later, a sample-administered group and a control group were placed simultaneously into each cylindrical trough for measurement, and physical endurance of each group was measured and compared.

For `CC1(C)CCC2=C(O1)c1ccccc1C(=O)C2=O` [βL, 2,2-Dimethyl-3,4-dihydro-2H-benzo[h]chromene-5,6-dione], the “intracellular ATP concentration” value (MN9X cells) was “decreased”, the AMP kinase phosphorylation (AMPK; HEK293 cells (no NQO1)) was “not promoted” and the AMP kinase phosphorylation (AMPK; HEK293 cells (no NQO1), listed as pyran-1,2-naphthoquinone) was “not observed”. For the same compound, the AMP kinase phosphorylation (AMPK; HEK293 transfected with NQO1-C609T having no NQO1 activity) was “no phosphorylation of AMP kinase”, the “decrease of TMRE fluorescence” value (HepG2 cells) was “about 20%” and the increased oxygen consumption (HEK293 cells) was “not observed”. The ACC activation (AMPK, ACC) was “decreases ACC activation”, the “activity of AMPK” value (AMPK, ACC; 10 μM, 30 min) was “increased” and the “EM examination on liver tissues” value [1] was “remarkably decreased fat vacuoles and glycogen stores”. The “EM examination on muscle tissue of animal limbs” value [1] was “recovery of normal mitochondrial morphology”, the “H&E staining on liver tissue” value [1] was “almost all fat vacuoles have disappeared” and the “increase of swimming duration compared to control” value [2] was “two-fold”.
